Some test systems named below: RPMI-8226; KM12; COLO 205; HCT-15; HCT-116; HOP-62; NCI-H522; NCI-H23; MOLT-4; NCI-H460; SK-MEL-2; SNB-75; HT-29; IGROV-1; HOP-92; SK-MEL-28; K562; SN12C; MCF7; TK-10.
Assay in all cases: NCI-60 cell line screen, 48 h

Each structure is given as a SMILES string.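 A five-concentration, 48-hour dose response in 96-well plates underlies each endpoint, interpolated linearly between surrounding concentrations. GI50 = concentration required for 50% inhibition of growth.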 Active and inactive are the calls of the source. Cut-off read from the data, not from the text of the source: active = GI50 up to about 1.1 µM and inactive = higher.

On to `O=[N+]([O-])/C(C(Cl)=C(Cl)Cl)=C1\Nc2ccccc2O1`, for which the GI50 in the test on RPMI-8226 is 24.3 µM (inactive); in the test with KM12, 90.6 µM (inactive); in the test with COLO 205 it was 60.1 µM (inactive); in the test with HCT-15 it was above 100 µM; with HCT-116, 51.6 µM (inactive); in the test with HOP-62, 47.4 µM (inactive). Besides, the GI50 in the test with NCI-H522 was 27.2 µM (inactive); in the test on NCI-H23, 67.3 µM (inactive); in the test on MOLT-4, 29.6 µM (inactive); in the test with NCI-H460, > 100 µM (inactive); in the test on SK-MEL-2 it was > 100 µM (inactive); in the test with SNB-75, 15.7 µM (inactive). Besides, the GI50 in the test on HT-29 is > 100 µM (inactive); with IGROV-1, 43.7 µM (inactive); in the test with HOP-92, 12 µM (inactive); in the test with SK-MEL-28, > 100 µM (inactive); with K562 it was > 100 µM (inactive); in the test with SN12C, 45.9 µM (inactive). For the same compound, the GI50 with MCF7 was 40.2 µM (inactive); in the test on TK-10, > 100 µM (inactive).

On to `COC(C[C@H]1CCCC[C@]1(O)/C(=C\CO[Si](C(C)C)(C(C)C)C(C)C)Sc1ccccc1)OC`, for which the GI50 in the test with RPMI-8226 is 15.5 µM (inactive); in the test with KM12 it was 41.3 µM (inactive); in the test on COLO 205 it was 20.9 µM (inactive); in the test on HCT-15 it was 21.8 µM; in the test on HCT-116 it was 22.5 µM (inactive); in the test with HOP-62 it was 50 µM (inactive). Besides, the GI50 is 15.8 µM (inactive) with NCI-H522; 25.8 µM (inactive) in the test with NCI-H23; 17.3 µM (inactive) in the test on MOLT-4; 60 µM (inactive) in the test on NCI-H460; 22.7 µM (inactive) in the test with SK-MEL-2; 18.1 µM (inactive) in the test with SNB-75. Besides, the GI50 in the test with HT-29 was 46.1 µM (inactive); in the test on IGROV-1, 52.7 µM (inactive); in the test with HOP-92, 20.5 µM (inactive); in the test on SK-MEL-28, 50.6 µM (inactive); in the test with K562 it was 31.3 µM (inactive); in the test with SN12C, 39.5 µM (inactive). In addition, the GI50 with MCF7 and with TK-10 was > 100 µM (inactive) each time.

For the compound `COn1oc(=O)c2ccccc21`, the GI50 in the test on RPMI-8226 was > 100 µM (inactive); in the test on KM12 it was > 100 µM (inactive); with COLO 205, > 100 µM (inactive); with HCT-15 it was above 100 µM; with HCT-116, > 100 µM (inactive); with HOP-62, > 100 µM (inactive). Also, the GI50 in the test with NCI-H522 was 11.5 µM (inactive); in the test on NCI-H23 it was > 100 µM (inactive); in the test with MOLT-4, > 100 µM (inactive); in the test on NCI-H460, > 100 µM (inactive); with SK-MEL-2 it was > 100 µM (inactive); in the test with SNB-75, > 100 µM (inactive). Further, the GI50 in the test with HT-29, in the test with IGROV-1, with HOP-92, with SK-MEL-28, in the test on K562 and in the test with SN12C was > 100 µM (inactive) each time. The GI50 in the test with MCF7 and in the test on TK-10 was > 100 µM (inactive) throughout.

Consider `O=C(NC(Cc1ccc(I)cc1)C(=O)O)c1cccc(Br)c1` (centres undefined), for which the GI50 in the test with RPMI-8226 is 47.8 µM (inactive); with KM12, 55.1 µM (inactive); with COLO 205, > 100 µM (inactive); with HCT-15, above 100 µM; in the test with HCT-116 it was > 100 µM (inactive); in the test on HOP-62, 67.3 µM (inactive). In addition, the GI50 with NCI-H522 is > 61.1 µM (inactive); with NCI-H23 it was > 100 µM (inactive); with MOLT-4, 33.7 µM (inactive); in the test with NCI-H460 it was 96.8 µM (inactive); in the test on SK-MEL-2, > 80.7 µM (inactive); with SNB-75 it was 39.2 µM (inactive). Besides, the GI50 in the test on HT-29 is > 100 µM (inactive); in the test on IGROV-1, > 100 µM (inactive); in the test with HOP-92, 44.9 µM (inactive); with SK-MEL-28, 49.8 µM (inactive); in the test on K562, 48.6 µM (inactive); with SN12C it was > 100 µM (inactive). Besides, in the test on MCF7, the GI50 was 38 µM (inactive).

For the compound `Cc1c(N)nc([C@H](CC(N)=O)NC[C@H](N)C(N)=O)nc1C(=O)N[C@H](C(=O)N[C@H](C)[C@@H](O)CC(=O)N[C@H](C(=O)NC(O[C@@H]1O[C@@H](C)[C@@H](N)[C@@H](O)[C@H]1O)C(O)c1nc(-c2nc(C(=O)NCCCCN)cs2)cs1)[C@@H](C)O)[C@@H](O[C@@H]1O[C@@H](CO)[C@@H](O)[C@H](O)[C@@H]1O[C@H]1O[C@H](CO)[C@@H](O)[C@H](OC(N)=O)[C@@H]1O)c1c[nH]cn1` (some centres undefined), the GI50 is > 50 µM (inactive) in the test on RPMI-8226; 49.1 µM (inactive) in the test on KM12; > 50 µM (inactive) with COLO 205; above 32.2 µM in the test on HCT-15; 3.86 µM (inactive) in the test on HCT-116; 1.98 µM (inactive) with HOP-62. Further, the GI50 in the test with NCI-H522 was 11.2 µM (inactive); in the test on NCI-H23, 5.73 µM (inactive); in the test with MOLT-4, > 39.9 µM (inactive); in the test on NCI-H460, 0.145 µM (active); with SK-MEL-2, > 50 µM (inactive); in the test with SNB-75, 6.73 µM (inactive). For the same compound, the GI50 was > 50 µM (inactive) with HT-29; 16 µM (inactive) in the test on IGROV-1; 12.9 µM (inactive) with HOP-92; > 50 µM (inactive) in the test on SK-MEL-28; > 50 µM (inactive) in the test with K562; 16.5 µM (inactive) with SN12C. The GI50 was > 39.9 µM (inactive) in the test with MCF7 and > 50 µM (inactive) in the test on TK-10.
